“Also recorded” adds a separate entry of the source.
Columns and labels:
[1] = tested on: 5LO mRNA; experiment: rtPCR of 5LO mRNA in adult rat cardiomyocytes; assay type: cell-based
Protocol: Cardiac myocytes were isolated from adult Sprague-Dawley rats (250-300 g, male). Animals were heparinized (1,000-2,000 units i.p.) 5 min before being anesthetized with ketamine (100 mg/kg) and xylazine (10 mg/kg), and the hearts were removed and placed in ice-cold heart media solution (in mmol/l: 112 NaCl, 5.4 KCl, 1 MgCl2, 9 NaH2PO4, and 11.1 D-glucose; supplemented with 10 HEPES, 30 taurine, 2 DL-carnitine, and 2 creatine, pH. 7.4). The hearts were perfused retrogradely in a Langendorff apparatus with Ca^2+-free heart media for 5 min at 5 ml/min at 37° C., followed by perfusion with Ca^2+-free heart media containing collagenase II, 210 U/mg (Worthington, Lakewood, N.J.) for 20 min. After perfusion, both ventricles were removed from the heart and minced in collagenase II-containing heart media for 10-15 min. The cell solution was then washed several times to remove collagenase II and reexposed to 1.2 mM Ca2^+ over 25 min to produce Ca2^+-tolerant cardiac myocytes. Myocytes were then plated in 4% FBS on laminin (2 μg/cm^2)-coated plates for 1 h and incubated at 37° C. in 5% CO2 for 12-24 h before experiments (21). Cells were incubated with 1) vehicle (0.07% ethanol); 2) PIO (10 μM)+ATV (10 μM); 3) H-89 (0.1 μM); or 4) PIO+ATV+H-89 for 12 hours. The supernatants were collected directly for LTB4 analyses by ELISA and the cells were harvested for immunoblotting. In addition, cells were plated in 8-chamber slides, received the same treatment as above and were used for immunohistochemical staining.
Equal amounts of total cellular RNA were reverse-transcribed with oligo(dT) primer by use of AMV Reverse Transcriptase (Applied Biosystems). Transcribed cDNAs (40 ng) were used for Real Time PCR with specific primers: rat ALOX5. […] The Ct (threshold cycle) is defined as the number of cycles required for the fluorescence signal to exceed the detection threshold. Expression of the ALOX5 relative to the GAPDH was calculated as the different between the threshold values of these two genes. […]

[2] = tested on: 5LO (Ser523 phosphorylated 5LO); experiment: immunoblotting of total 5LO and P-5LO in rat myocardium (whole cell homogenate); assay type: in vivo; settings: for myocardial levels of Ser523 phosphorylated 5LO (P-5LO) / myocardial total 5LO levels: whole cell homogenate, PIO or ATV 10 mg/kg/d 3 days, H-89 20 mg/kg i.p.
Protocol: Rats received: 1) PIO (10 mg/kg/d); 2) ATV (10 mg/kg/d); 3) PIO (10 mg/kg/d)+H89 (20 mg/kg); 4) ATV (10 mg/kg/d)+H89 (20 mg/kg); 5) H89 (20 mg/kg) or 6) water alone (control). PIO and ATV were suspended in water and administered by gastric gavage once daily for 3 days; H-89 was dissolved in DMSO (final concentration 5% v/v) and injected intraperitoneally on the third day. Rats in groups 5 and 6 received water by gastric gavage once daily for 3 days. Rats in groups 1, 2 and 6 received intraperitoneal inkection of DMSO 5%. Sixteen hours after the injection, rats were euthanized and the hearts explanted for further analyses. In another experiment, rats received 3-day pretreatment with: 1) water (sham); 2) PIO (10 mg/kg/d); 3) ATV (10 mg/kg/d); 4) PIO (10 mg/kg/d)+ATV (10 mg/kg/d); or 5) LPS (10 mg/kg).
PIO and ATV were administered by oral gavage once daily as above; LPS was administered intravenously. In addition, rats in groups 1-4 received intravenous saline on the […], whereas rats in group 1 and 5 received water by gastric gavage once daily for 3 days and the LPS injection on the third day. Sixteen hours after the injection, rats were euthanized and the hearts explanted for further analyses.
The hearts were rapidly explanted, rinsed in cold PBS (pH 7.4), containing 0.16 mg/ml heparin to remove red blood cells and clots, frozen in liquid nitrogen and stored at −70° C. Myocardial samples from the anterior left ventricular wall were homogenized in RIPA lysis buffer (Santa Cruz Biotechnology, Santa Cruz, Calif.) and centrifuged at 14,000 rpm for 15 min at 4° C. The supernatant was collected and the total protein concentration was determined using the Lowry protein assay. […] The protein samples with loading buffer were run in 4-20% Tri-HCl Ready Gel at a 100V for 2 h until the desired molecular weight bands were separated. After electrophoresis, the gel was equilibrated in transfer buffer (25 mM Tris, 193 mM glycine, 0.1% SDS and 10% methanol) and the proteins were transferred to nitrocellulose membrane. The protein signals were quantified by an image-scanning-densitometer and the strength of each protein signal was normalized to the corresponding b-actin stain signal. Data are expressed as a ratio between the protein and the corresponding b-actin signal density.

**Q.** Which results are given for CC(C)c1c(C(=O)Nc2ccccc2)c(-c2ccccc2)c(-c2ccc(F)cc2)n1CCC(O)CC(O)CC(=O)O (centres unmarked) [ATV, 7-[2-(4-fluorophenyl)-5-(1-methylethyl)-3-phenyl-4-(phenylcarbamoyl)-1H-pyrrol-1-yl]-3,5-dihydroxy-heptanoic acid]?
**A.** 5LO mRNA levels in the cardiomyocytes [1]: did not affect; 5LO phosphorylation, PIO and ATV compared with LPS ([2]; PIO, ATV 10 mg/kg/d, LPS 10 mg/kg i.v.): significantly greater increase; myocardial levels of Ser523 phosphorylated 5LO (P-5LO) [2]: augment; also recorded: increased; myocardial total 5LO levels [2]: without detectable change; also recorded: did not affect

**Q.** O=S(=O)(NCCNC/C=C/c1ccc(Br)cc1)c1cccc2cnccc12 [H-89] was tested. Which “5LO mRNA levels in the cardiomyocytes” value [1] did it give?
**A.** did not affect

**Q.** What about the “effect on the increase in P-5LO by PIO and ATV” value ([2]; H-89 20 mg/kg i.p. with PIO or ATV 10 mg/kg/d) of the same compound?
**A.** completely blocked

**Q.** What about the “myocardial levels of Ser523 phosphorylated 5LO (P-5LO)” value [2] of the same compound?
**A.** did not affect

**Q.** What about the “myocardial total 5LO levels” value [2] of the same compound?
**A.** did not affect
